# Measurements published in article PMC8287630 (Journal for Immunotherapy of Cancer, 2021).
# Assays:
# [1] = In vivo safety evaluation (body weight, hematology, serum biochemistry, histopathology); parameters: species or system mice; conditions: for histopathology of heart, liver, spleen, lung and kidney: HE staining, versus control group; for animal behavior and body weight after administration: tumor-bearing mice
# Experimental: The in vivo safety of CHA-SME was evaluated based on body weight, hematological examination, and histopathological examination in mice. Body weight was monitored throughout the experiment. At the end of the in vivo antitumor experiment, peripheral blood was collected for hematological examination using an automatic hematology analyzer (MEK-7222 K; Nihon Kohden, Tokyo, Japan). Additionally, the serum was separated to detect […] (ALT), […] (AST), blood urea nitrogen (BUN), and creatinine (CRE) to evaluate hepatic and renal functions using an automatic biochemical analyzer (Accute TBA-40FR; TOSHIBA, Kawasaki, Japan). Heart, liver, spleen, lung, kidney, stomach, small intestine, and MLNs were collected, fixed in 4% PFA, and subjected to histopathological examination using HE staining.
# G422 glioma = assay: In vivo antitumor efficacy, subcutaneous G422 glioma model; parameters: species or system ICR mice; conditions: 14 days; CHA 20 mg/kg i.p., CHA-SME 35 mg/kg p.o.
# Experimental: A subcutaneous glioma tumor model was established in female ICR mice, as mentioned above. […] The positive control group was orally administered TMZ (50 mg/kg) for 5 days. The blank CHA-SME group was orally administered with blank CHA-SME for 14 days. At the end of the experiment, all mice were euthanized, and the tumors were collected, weighed, and photographed. […] The positive control group was orally administered TMZ (50 mg/kg) for 5 days. […] The CHA-SME group was orally administered CHA-SME (35 mg/kg) for 14 days. At the end of the experiment, all mice were euthanized, and the tumors were collected, weighed, and photographed.
# [2] = Pharmacokinetic study in beagle dogs; type: in vivo; conditions: dog, plasma, 30 mg/kg
# Experimental: (§1) Pharmacokinetic studies of free CHA and CHA-SME were performed using SD rats and beagle dogs. […] At 5, 15, 30 min, 1, 2, 4, 6, and 8 hours, approximately 0.2 mL of blood was collected from the orbital into an anticoagulant tube and centrifuged at 4500 rpm for 10 min to separate the plasma. All plasma samples were stored frozen at –80°C until LC-MS/MS analysis (TSQ Quantum Access MAX; Thermo Fisher Scientific, Waltham, MA, USA).
# [3] = system: several human cancer cell lines; conditions: cited from earlier work
# DCs and T cells = assay: Immunomodulatory effects in vivo (immunophenotype of DCs and T cells, cytokines); parameters: species or system mice; conditions: CHA-SME 35 mg/kg; versus control treatment
# Experimental: The in vivo immunomodulatory effects of CHA-SME were evaluated by analyzing the immunophenotype of LYM and cytokine production. LYM (DCs and T cells) infiltrated into the blood, tumor, and other important immune organs (MLNs and spleen) were quantitatively analyzed by flow cytometry. Fresh tumors were cut into small pieces and digested at 37°C for 40 min. Fresh MLNs and spleens were cut into small pieces and ground into single-cell suspensions. The cells were collected, washed, and incubated with different fluorescein-conjugated antibodies. The cell suspensions were filtered through 400-mesh sieves after two washes and analyzed by flow cytometry ([…] Biosciences, San Diego, California, USA). For immunophenotype analysis of T cells, CD45 +CD3+CD44+CD62L+cells and CD45 +CD3+CD44+CD62 L-cells were considered to be central memory T cells (TCM) and effector memory T cells (TEM), respectively. For DC maturation analysis, the expression levels of MHC I, CD40, CD80, and CD86 on DCs were examined. Different cytokines (IFN-γ, tumor necrosis factor α (TNF-α), and IL-10) in tumors, MLNs, spleens, and blood were quantitatively determined using bead-based LEGENDplex kits following the manufacturer's protocol.
# [4] = Pharmacokinetic study in rats; type: in vivo; conditions: male, SD, rat, plasma, po, 30 mg/kg
# Experimental: as §1
# [5] = type: in vivo; conditions: mice, oral 1 mg/kg, 30 min; figure 5C
# Experimental: To evaluate the uptake of CHA-SME in the intestinal tissues and MLNs, Cou-6-labeled CHA-SME were orally administered to mice at 1 mg/kg. Thirty minutes later, the mice were sacrificed and intestinal segments (including duodenum, jejunum, ileum, and colon,~1 cm each) and MLNs were surgically collected, placed in embedding compound, frozen in liquid nitrogen, and dissected. The slices were fixed with 4% PFA, stained with TRITC phalloidin and DAPI, and imaged using CLSM. Additionally, MLNs were ground into single-cell suspensions and the fluorescence intensity was determined by flow cytometry.
# To investigate the lymphatic transport of CHA-SME in vivo, mice were i.p. administered 3.0 mg/kg cycloheximide to block chylomicron flow.[37 38] One-hour postinjection, DiR-labeled or Cou-6-labeled CHA-SME was orally administered at 1.0 mg/kg. The mice were examined as described above.
# Caco-2 cell monolayers = assay: Transport within Caco-2 cell monolayers (CLSM); type: cell-based, human; conditions: 4 hours incubation
# Experimental: To establish an in vitro Caco-2 cell monolayer model, Caco-2 cells were plated in a 12-well Transwell plate with a 0.4 µm pore polycarbonate membrane insert (Corning, Corning, New York, USA). A total of 0.5 mL of cell culture medium containing 2×10^5 cells was added in the upper compartment of each Transwell insert, and 1.5 mL of cell culture medium was added in the lower compartment. The culture medium in both compartments was changed every other day in the initial 14 days and every day in the following 7 days. After 21 days of culture, transepithelial electrical resistance (TEER) was measured using Millicell-ERS (Millipore, Billerica, Massachusetts, USA) to monitor cell monolayer integrity. A TEER value exceeding 800 Ω was selected for subsequent transepithelial transport study of CHA-SME.
# For the transepithelial transport study of CHA-SME, Caco-2 cell monolayers cultured in Transwell plates were incubated with Cou-6-labeled CHA-SME for 4 hours at 37°C. Then, the cells were washed thrice with cold PBS, and the polycarbonate membrane with cultured cells was carefully cut from the insert. After fixation with 4% PFA and staining with TRITC phalloidin and DAPI, the excised membrane was placed in a glass slide and examined by CLSM.
"bioavailability ([2]; oral, read-out: oral absolute bioavailability) [%]","AUC ([2]; po, read-out: AUC Mean±SD) [ng·h/mL]",AUC [4] [ng·h/mL],SMILES,"histopathology of heart, liver, spleen, lung and kidney [1]",animal behavior and body weight after administration [1],tumor growth (G422 glioma),effective dose for inhibition of cell proliferation / induction of apoptosis [3],"proportion of infiltrating CD3+, CD4+ and CD8+ T cells in brain glioma tissues (DCs and T cells)",percentage of Cou-6-positive lymphocytes in MLNs [5] [%],green fluorescence within Caco-2 cell monolayers (Caco-2 cell monolayers)
–,–,–,"Cn1nnc2c(C(N)=O)ncn2c1=O [TMZ, temozolomide]",a certain degree of fragmentation and pathological changes in the heart and spleen,marked weight loss and sparse hair,–,–,–,–,–
5.85,692 ± 179,35.8 ± 10.9,"O=C(/C=C/c1ccc(O)c(O)c1)O[C@@H]1C[C@](O)(C(=O)O)C[C@@H](O)[C@H]1O [CHA, Chlorogenic acid]",no obvious organ lesion,tolerated the regimens well,able to inhibit tumor growth,higher than 100 µM,no significant difference,–,–
–,–,–,"CCN(CC)c1ccc2cc(-c3nc4ccccc4s3)c(=O)oc2c1 [Cou-6, Coumarin-6]",–,–,–,–,–,7.2,negligible green fluorescence
